From ChEMBL document CHEMBL1201862, “PubChem BioAssay data set” (2004)
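These data come from cells grown in 96-well plates and exposed to compound for 48 hours at five concentrations. GI50 marks 50% less growth.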 Active and inactive are the calls of the source. No stated cut-off is given here; in the data, active = GI50 up to about 1.1 µM and inactive = higher.

Columns and labels:
Assay in all cases: NCI-60 cell line screen, 48 h
[1] = system: COLO 205
[2] = system: SW-620
[3] = system: OVCAR-8
[4] = system: HOP-92
[5] = system: SK-MEL-5
[6] = system: OVCAR-5
[7] = system: IGROV-1
[8] = system: UACC-62
[9] = system: NCI-H23
[10] = system: Malme-3M
[11] = system: SK-OV-3
[12] = system: LOX IMVI
[13] = system: RXF 393
[14] = system: DMS-114
[15] = system: HT-29
[16] = system: 786-0
[17] = system: NCI-H226
[18] = system: A549
[19] = system: OVCAR-4

Measured: GI50

COc1ccc(-c2[nH]c3ccccc3c2CCNS(=O)(=O)c2ccc(C)cc2)cc1
inactive: [1] 1.83 µM | [2] > 10 µM | [3] > 7.91 µM | [4] > 10 µM | [5] > 5.9 µM | [6] > 10 µM | [7] > 6.34 µM | [8] > 8.39 µM | [9] > 10 µM | [10] > 10 µM | [11] > 10 µM | [12] > 10 µM | [13] > 10 µM | [14] > 9.55 µM | [15] 6.35 µM | [16] > 10 µM | [17] > 7.6 µM | [18] 6.05 µM

O=C1CCC(=O)c2ccccc2N1
inactive: [1] > 100 µM | [2] > 100 µM | [3] > 100 µM | [4] > 100 µM | [19] > 100 µM | [5] > 100 µM | [6] > 100 µM | [7] > 100 µM | [9] > 100 µM | [10] > 100 µM | [11] > 100 µM | [12] > 100 µM | [13] > 100 µM | [14] > 100 µM | [15] > 100 µM | [16] > 100 µM | [17] > 100 µM | [18] > 100 µM

CCOC(=O)N1CCc2cc(OC)c(OC)c3c2C1CC3=O (configuration not stated)
inactive: [1] > 100 µM | [2] > 100 µM | [3] > 100 µM | [4] > 100 µM | [19] > 100 µM | [5] > 100 µM | [6] > 100 µM | [7] > 100 µM | [8] > 100 µM | [10] > 100 µM | [11] > 100 µM | [12] > 100 µM | [13] > 100 µM | [14] > 100 µM | [15] > 100 µM | [16] > 100 µM | [18] > 100 µM

Cc1nc2ccccc2c(=O)n1-c1ccccc1F
inactive: [1] > 100 µM | [2] > 100 µM | [3] > 100 µM | [4] > 100 µM | [19] > 100 µM | [5] > 100 µM | [6] > 100 µM | [7] > 100 µM | [8] > 100 µM | [9] > 100 µM | [10] > 100 µM | [11] > 100 µM | [12] > 100 µM | [13] > 100 µM | [14] > 100 µM | [15] > 100 µM | [16] > 100 µM | [17] > 100 µM | [18] > 100 µM

COC(=O)c1c(CC#N)cccc1CC#N
inactive: [1] > 100 µM | [2] > 100 µM | [3] > 100 µM | [4] > 100 µM | [19] > 100 µM | [6] > 100 µM | [7] > 100 µM | [8] > 100 µM | [9] > 100 µM | [10] > 100 µM | [11] > 100 µM | [12] > 100 µM | [13] > 100 µM | [14] > 100 µM | [15] > 100 µM | [16] > 100 µM | [17] > 100 µM | [18] > 100 µM

OCCN1CCN2C=C(C3CCCC4N(CCO)CCN34)CCC21 (configuration not stated)
inactive: [1] > 65.2 µM | [2] 23.6 µM | [3] 35.2 µM | [4] > 60.8 µM | [19] 52.8 µM | [5] 41.9 µM | [6] > 100 µM | [7] 76 µM | [8] 28.1 µM | [9] 43 µM | [10] > 79.8 µM | [11] > 69.2 µM | [12] 26.7 µM | [13] 20.3 µM | [14] 25.4 µM | [15] 68.9 µM | [16] 41.7 µM | [17] > 91 µM | [18] > 100 µM

Cc1nc(Nc2ccc(Cl)cc2)sc1C(=O)NNC(=S)NN
inactive: [1] 21.6 µM | [2] 19.5 µM | [3] 21.3 µM | [4] 26.1 µM | [19] 17.7 µM | [5] 18.3 µM | [6] 16.8 µM | [7] 25.9 µM | [8] 17.2 µM | [9] 17.6 µM | [10] 19.7 µM | [11] 27.4 µM | [12] 14.5 µM | [13] 12.7 µM | [14] 17.5 µM | [16] 16.6 µM | [17] 19.1 µM | [18] 19 µM

CC(=O)Nc1ccc(S(=O)(=O)NN(C)S(=O)(=O)c2ccc(C)cc2)cc1
inactive: [1] > 100 µM | [2] > 100 µM | [3] > 100 µM | [4] > 100 µM | [19] > 100 µM | [5] > 100 µM | [6] > 100 µM | [7] > 100 µM | [8] > 100 µM | [9] > 100 µM | [10] > 100 µM | [11] > 100 µM | [13] > 100 µM | [14] > 100 µM | [15] > 100 µM | [16] > 100 µM | [18] > 100 µM

Cn1nc(-c2ccccc2)c(N=[N+]=[N-])cc1=O
inactive: [1] > 100 µM | [2] > 100 µM | [3] > 100 µM | [19] > 100 µM | [5] > 100 µM | [6] > 100 µM | [7] > 100 µM | [8] > 100 µM | [9] > 100 µM | [10] > 100 µM | [11] 1.59 µM | [12] > 100 µM | [13] > 100 µM | [14] > 100 µM | [15] > 100 µM | [16] > 100 µM | [17] > 100 µM | [18] > 100 µM

CCCCCCCCCCCCCC(=O)OCC1OC(n2cc(F)c(=O)[nH]c2=O)C(NC(=O)OCc2ccccc2)C(OC(=O)CCCCCCCCCCCCC)C1O (configuration not stated)
inactive: [1] > 100 µM | [2] > 100 µM | [3] > 100 µM | [4] > 100 µM | [19] > 100 µM | [5] > 100 µM | [6] 25.6 µM | [7] > 100 µM | [8] > 100 µM | [9] > 100 µM | [10] > 100 µM | [11] > 100 µM | [12] > 100 µM | [13] > 100 µM | [14] > 100 µM | [15] > 100 µM | [16] > 100 µM | [17] > 100 µM | [18] > 100 µM

N#C/C(=C1\OC(=N)C(c2ccc(Cl)cc2)=C1O)c1ccc(Cl)cc1
inactive: [1] 18.8 µM | [2] 13.2 µM | [3] 13.5 µM | [4] 17.9 µM | [19] 15.9 µM | [6] 2.99 µM | [7] 15.7 µM | [8] 14.2 µM | [9] 13.6 µM | [10] 19.1 µM | [11] 37.8 µM | [12] 16 µM | [13] 12.4 µM | [14] 14.8 µM | [15] 18.9 µM | [16] 16 µM | [17] 10 µM | [18] 20.5 µM

COC(=O)OCC1OC(N2C(=O)NC(=O)C(Br)C2N=[N+]=[N-])CC1OC(=O)OC (configuration not stated)
inactive: [1] > 100 µM | [2] > 100 µM | [3] > 100 µM | [4] > 100 µM | [19] > 100 µM | [5] > 100 µM | [6] > 100 µM | [7] > 100 µM | [8] > 100 µM | [9] > 100 µM | [10] > 100 µM | [11] > 100 µM | [12] > 100 µM | [13] > 100 µM | [14] > 100 µM | [15] > 100 µM | [16] > 100 µM | [17] > 100 µM | [18] > 100 µM

COc1ccc2c(c1)[n+]([O-])c(C(=O)C/C(=N/NC(=O)C[N+](C)(C)C)C(=O)Nc1cccc(C)c1C)c(C)[n+]2[O-]
inactive: [1] > 100 µM | [2] > 100 µM | [3] > 100 µM | [4] 59 µM | [19] > 100 µM | [6] 67.1 µM | [7] > 100 µM | [8] > 100 µM | [9] > 100 µM | [10] > 100 µM | [11] > 100 µM | [13] > 100 µM | [14] > 100 µM | [15] > 100 µM | [16] > 100 µM | [17] > 100 µM | [18] > 100 µM

C=CC(=O)NCCSCCCOC1(C(=O)O)CC(O)C(NC(C)=O)C(C(O)C(O)CO)O1 (configuration not stated)
inactive: [1] > 100 µM | [2] > 100 µM | [3] > 100 µM | [4] > 100 µM | [19] > 100 µM | [6] > 100 µM | [7] > 100 µM | [8] > 100 µM | [9] > 100 µM | [10] > 100 µM | [11] > 100 µM | [12] > 100 µM | [13] > 100 µM | [14] > 100 µM | [15] > 100 µM | [16] > 100 µM | [17] > 100 µM | [18] > 100 µM

CC(=O)OC[C@]1(O)CC[C@@]23CC1C[C@@H]2CCC1C(C)(C)CCC[C@@]13C (some centres not stated)
inactive: [1] 17.8 µM | [2] 10.7 µM | [3] 16.6 µM | [4] 14.4 µM | [19] 15.9 µM | [5] 15 µM | [6] 11.3 µM | [7] 19.7 µM | [8] 13.4 µM | [9] 12.8 µM | [10] 15.6 µM | [11] 15.2 µM | [12] 11.1 µM | [13] 7.11 µM | [14] 11.2 µM | [15] 13 µM | [16] 17.3 µM | [17] 15.8 µM | [18] 15.8 µM
